According to ChEMBL document CHEMBL3046154, “Synthesis and biological activity of 2-(4,5-dihydroisoxazol-5-yl)-1,3,4-oxadiazoles” (2009):

Columns and labels:
Assay type in all cases: functional
Parameters in all cases: concentration or dose not given beside the values
Spodoptera exigua = test: Insecticidal activity against Spodoptera exigua assessed as mortality
Pyricularia oryzae = test: Antifungal activity against Magnaporthe oryzae assessed as disease control
Zymoseptoria tritici = test: Antifungal activity against Zymoseptoria tritici assessed as disease control

Clc1cccc(C2=NOC(c3nnc(-c4ccccc4)o3)C2)c1 (stereo not drawn)
Activity (Spodoptera exigua): 0%
Activity (Pyricularia oryzae): 30%
Activity (Zymoseptoria tritici): 0%

CC1(c2nnc(-c3ccc(Cl)cc3)o2)CC(c2ccc(Cl)cc2)=NO1 (stereo not drawn)
Activity (Spodoptera exigua): 17%
Activity (Pyricularia oryzae): 50%
Activity (Zymoseptoria tritici): 0%

Fc1ccc(C2=NOC(c3nnc(-c4ccccc4)o3)C2)cc1 (stereo not drawn)
Activity (Spodoptera exigua): 17%
Activity (Pyricularia oryzae): 30%
Activity (Zymoseptoria tritici): 0%

CC1(c2nnc(-c3ccc(Cl)cc3)o2)CC(c2ccc([N+](=O)[O-])cc2)=NO1 (stereo not drawn)
Activity (Spodoptera exigua): 0%
Activity (Pyricularia oryzae): 30%
Activity (Zymoseptoria tritici): 40%

c1ccc(-c2nnc(C3CC(c4ccncc4)=NO3)o2)cc1 (stereo not drawn)
Activity (Spodoptera exigua): 0%
Activity (Pyricularia oryzae): 0%
Activity (Zymoseptoria tritici): 0%

CC1(c2nnc(-c3cccc(Cl)c3)o2)CC(c2ccccc2)=NO1 (stereo not drawn)
Activity (Spodoptera exigua): 17%
Activity (Pyricularia oryzae): 40%
Activity (Zymoseptoria tritici): 10%

CC1(c2nnc(-c3cccc(Cl)c3)o2)CC(c2ccc(Cl)cc2)=NO1 (stereo not drawn)
Activity (Spodoptera exigua): 50%
Activity (Pyricularia oryzae): 40%
Activity (Zymoseptoria tritici): 0%

CC1(c2nnc(Cc3ccccc3)o2)CC(c2c(Cl)cccc2Cl)=NO1 (stereo not drawn)
Activity (Spodoptera exigua): 0%
Activity (Pyricularia oryzae): 0%
Activity (Zymoseptoria tritici): 0%

CC1(c2nnc(-c3cccc(Cl)c3)o2)CC(c2ccc(F)cc2)=NO1 (stereo not drawn)
Activity (Spodoptera exigua): 0%
Activity (Pyricularia oryzae): 50%
Activity (Zymoseptoria tritici): 10%

Clc1cccc(Cl)c1C1=NOC(c2nnc(-c3ccccc3)o2)C1 (stereo not drawn)
Activity (Spodoptera exigua): 17%
Activity (Pyricularia oryzae): 40%
Activity (Zymoseptoria tritici): 30%

CC1(c2nnc(-c3cccc(Cl)c3)o2)CC(c2cccc(Cl)c2)=NO1 (stereo not drawn)
Activity (Spodoptera exigua): 33%
Activity (Pyricularia oryzae): 30%
Activity (Zymoseptoria tritici): 0%

CC1(c2nnc(-c3ccc(Cl)cc3)o2)CC(c2ccncc2)=NO1 (stereo not drawn)
Activity (Spodoptera exigua): 0%
Activity (Pyricularia oryzae): 30%
Activity (Zymoseptoria tritici): 70%

Clc1ccc(C2=NOC(c3nnc(-c4ccccc4)o3)C2)cc1 (stereo not drawn)
Activity (Spodoptera exigua): 17%
Activity (Pyricularia oryzae): 0%
Activity (Zymoseptoria tritici): 0%

CC1(c2nnc(-c3cccc(Cl)c3)o2)CC(c2c(Cl)cccc2Cl)=NO1 (stereo not drawn)
Activity (Spodoptera exigua): 50%
Activity (Pyricularia oryzae): 50%
Activity (Zymoseptoria tritici): 0%

CC1(c2nnc(Cc3ccccc3)o2)CC(c2ccc([N+](=O)[O-])cc2)=NO1 (stereo not drawn)
Activity (Spodoptera exigua): 17%
Activity (Pyricularia oryzae): 30%
Activity (Zymoseptoria tritici): 30%

CC1(c2nnc(-c3ccc(Cl)cc3)o2)CC(c2cccc(Cl)c2)=NO1 (stereo not drawn)
Activity (Spodoptera exigua): 50%
Activity (Pyricularia oryzae): 50%
Activity (Zymoseptoria tritici): 10%
